Laboratory results published in PubChem BioAssay (NCI).
Several values for one entry are separate records, joined by “and”; a condition that tells them apart may be missing. Identical values can stand only once.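 Results reflect a 48-hour exposure of cells in 96-well plates to compound at five concentrations. GI50: concentration for 50% inhibition of growth. TGI marks complete inhibition of growth.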

Assays:
Assay in all cases: NCI-60 cell line screen, 48 h
HL-60(TB) leukemia = system: HL-60(TB) leukemia
SK-MEL-2 melanoma = system: SK-MEL-2 melanoma
U251 CNS = system: U251 CNS
HCC-2998 colon = system: HCC-2998 colon
MCF7 breast = system: MCF7 breast
EKVX NSCLC = system: EKVX NSCLC
A498 renal = system: A498 renal
T-47D breast = system: T-47D breast
MDA-N = system: MDA-N
SK-OV-3 ovarian = system: SK-OV-3 ovarian

SMILES	TGI (HL-60(TB) leukemia) [µM]	TGI (SK-MEL-2 melanoma) [µM]	TGI (U251 CNS) [µM]	TGI (HCC-2998 colon) [µM]	TGI (MCF7 breast) [µM]	TGI (EKVX NSCLC)	TGI (A498 renal) [µM]	TGI (T-47D breast) [µM]	TGI (MDA-N) [µM]	TGI (SK-OV-3 ovarian) [µM]	GI50 (EKVX NSCLC) [nM]	GI50 (HL-60(TB) leukemia) [nM]	GI50 (SK-MEL-2 melanoma) [nM]	GI50 (MCF7 breast) [nM]	GI50 (A498 renal) [nM]	GI50 (U251 CNS) [nM]	GI50 (HCC-2998 colon) [nM]	GI50 (T-47D breast) [µM]	GI50 (SK-OV-3 ovarian) [nM]
COC(=O)n1c(CBr)c(Br)c2ccccc21	59.8	47	82.4	> 100															
CC1(C)[C@@H]2C[C@H]1C(Cc1cccc(C[C@H]3c4cc(-c5ccccn5)ncc4[C@H]4C[C@@H]3C4(C)C)c1)c1cc(-c3ccccn3)ncc12 (stereo not given in full)		> 100	16.3	> 100	> 100	> 46.8 µM	> 57	> 100	> 100	> 33.4									
C/C=C\C(CC(=O)NCCC1CN(C(=O)c2ccccc2)c2ccccc21)CC(=O)OC (stereo not given)		> 100	> 100	> 100	> 100	> 100 µM	> 100	> 100	> 100	> 100									
CC(=O)Nc1ccc(-c2nnc(SCC(=O)Nc3ccccc3C)o2)cc1	> 100	> 100	> 100							> 100									
O=C(/C=C/c1ccccc1O)/C=C/c1ccccc1O	7.62	23.1	2.89				4.18		3.93	4.34									
COc1ccc2c(c1)-c1oc3ccccc3c(=O)c1CO2		83.3	> 100	> 100	> 100	> 100 µM		68.5	78.1	> 100									
CN(C)CC(NC(NCS)C(=O)NCCNc1ccc(NCCNC(=O)C(NCS)NC(CN(C)C)OCCl)c2c1C(=O)c1c(O)ccc(O)c1C2=O)OCCl (stereo not given)		2.99	0.0575	1.86		1.26 µM and 2.51 µM	2.76	1.62	1.09	4.11	516								
CN1CCCCC(C(O)(c2ccccc2)c2ccccc2)C1=O (stereo not given)		> 100	> 100	> 100		> 100 µM	> 100			> 100									
COC(=O)c1cccc(C(=O)OC)c1	> 100	> 100	> 100	> 100			> 100			> 100									
O=c1[nH]c2ccccc2c2oc(-c3ccccc3)nc12		> 100	60.8	> 100	> 100	> 100 µM	59.5	> 100	46.6	> 100									
CC(C)(NC1=NCCO1)c1ccccc1		> 100	> 100	> 100	> 100	> 100 µM	> 100	> 100	> 100	> 100									
COC(=O)CCN(CCC(=O)OC)C1CC1	> 100		> 100	> 100	> 100	> 100 µM	> 100	> 100		> 100									
Nc1nc(SCCC/C=C/I)nc2c1ncn2C1OC(CO)C(O)C1O (stereo not given)	> 202	> 202	> 202				> 202			> 202									
O=C1/C(=C/c2ccco2)NC(=S)N1CN1CCOCC1		> 100	> 100		> 100	> 100 µM	> 100		> 100	> 100									
Cc1nnc2sc(N/N=C/c3ccccc3)nn12		> 100	> 100		> 100	> 100 µM	> 100	> 100	> 100	88.1									
COc1ccc2c(c1)CC[C@@H]1[C@@H]2CC[C@]2(C)C(=O)/C(=C/c3cc(OC)c(OC)c(OC)c3)C[C@@H]12	> 100	41.6	> 100	> 100	> 100	> 100 µM	> 100	> 100		> 100									
O=C(O)c1ccc(Nc2nc3ccccc3nc2C(=O)O)cc1		> 100	> 100	> 100	> 100	> 100 µM		> 100	> 100	> 100									
N#Cc1c(N2CCN(c3ccc([N+](=O)[O-])cc3)CC2)[n+](=O)c2ccc(Cl)cc2n1[O-]		8.54	5.81	4.4	> 33.3	10.8 µM	2.44		> 26.1	> 23.9									
CC(=O)OCC1OC(c2nnc(C)o2)=CC(OC(C)=O)C1OC(C)=O (stereo not given)	> 100		> 100		> 100	> 100 µM	> 100		> 100										

SMILES	TGI (HL-60(TB) leukemia) [µM]	TGI (SK-MEL-2 melanoma) [µM]	TGI (U251 CNS) [µM]	TGI (HCC-2998 colon) [µM]	TGI (MCF7 breast) [µM]	TGI (EKVX NSCLC)	TGI (A498 renal) [µM]	TGI (T-47D breast) [µM]	TGI (MDA-N) [µM]	TGI (SK-OV-3 ovarian) [µM]	GI50 (EKVX NSCLC) [nM]	GI50 (HL-60(TB) leukemia) [nM]	GI50 (SK-MEL-2 melanoma) [nM]	GI50 (MCF7 breast) [nM]	GI50 (A498 renal) [nM]	GI50 (U251 CNS) [nM]	GI50 (HCC-2998 colon) [nM]	GI50 (T-47D breast) [µM]	GI50 (SK-OV-3 ovarian) [nM]
COC1/C=C/C(C)C(C(C)C(OC)C(C)CCC(=O)C(C)C(C/C=C/N(C)C=O)OC)OC(=O)/C=C/C=C(\C)CC(OC)C(OC)C2=CC(=O)O[C@@H](C(C)C(OC)CC(OC)/C=C/C(C)C(O)C1)[C@H]2O (stereo not given in full)	0.43	0.388	0.301	0.359	0.977	0.441 µM	0.233	0.538											
NC(=O)CS(=O)CC(N)C(=O)O (stereo not given)		> 100	> 100	> 100		> 100 µM	> 100	> 100	> 100										
CCCCCCOc1ccc(NC2=C(Cl)C(=O)c3ncccc3C2=O)cc1			3.08		2.63	> 10 µM	> 10	4.03	2.97	> 10									
COc1cc(C2S/C(=C/c3ccccc3)C(=O)N2c2cccc([N+](=O)[O-])c2)cc(OC)c1OC (stereo not given)		67.9	> 100	> 100	> 100	> 100 µM	> 100	21.4	55.7	> 100									
Clc1ncnc2c1ncn2CCCCCCCCCCCCn1cnc2c(Cl)ncnc21	19.1	26.4	23.7	19.5		33 µM	24.6			33.3									
Cc1n(CC(=O)c2ccccc2)nc2sc(N)n[n+]12		> 100	> 100	> 100	> 100	> 100 µM	> 100	> 100	> 100	74.7									
CN(c1ccccc1Cl)S(=O)(=O)c1ccccc1[N+](=O)[O-]	> 100	> 100	> 100	> 100		> 100 µM		> 100	> 100	> 100									
Cn1ccc(C(=O)NCCCCCNC(=O)c2ccn(C)c(=O)c2O)c(O)c1=O	> 100	> 100	> 100	> 100			> 100	> 100	> 100										
O=C(c1ccccc1)N1C(=S)N(c2ccc([N+](=O)[O-])cc2)C(=Nc2ccccc2)C1=Nc1ccccc1		> 100	> 100	> 100	> 100	> 100 µM		> 100	> 100	> 100									
O=C(Nc1cccc(-n2ccc3c(NC(=O)c4ccccc4)nccc32)c1)c1cc(N2CCOCC2)cc(C(F)(F)F)c1	> 100	3.82	> 100	> 100	> 100	> 100 µM	0.729	> 100		> 100	802	514	167	33.2	31.5	118	462	> 51.8	142
COc1cc(CNc2nc3cc(C(F)(F)F)ccc3nc2C)cc(OC)c1OC	51.9		36.7	37.8		67.4 µM		40.4	33.2										
COc1cc(-c2nc3nc(N4CCN(C)CC4)ccc3[nH]2)c(OC)c2[nH]c(COC(C)=O)nc12		47.4	46.5	30.6	43.9	> 100 µM	> 100	> 100	> 100	82.1									
COc1nc2[nH]ccc2c(=O)n1C	> 100	> 100	> 100			> 100 µM	> 100												
Cc1cccc2c1C/C(=C\c1cccc(C)c1C(=O)O)C2=O	> 100	> 100	> 100	> 100	> 100	> 100 µM	> 100	> 100											
COc1cc(/C=C/C(=O)OC[C@H](Br)[C@H](OC(C)=O)c2ccc3c(c2)OCO3)cc(OC)c1OC		> 100	> 100	> 100	> 100	> 100 µM	> 100	> 100		> 100									
CC(=O)NC1=C(NCc2ccc(Cl)cc2)C(=O)c2ccccc2C1=O	3.22	12.2	24.2	> 50		31.4 µM				> 50									
N#Cc1nc(/C=C/c2ccccc2)oc1N		> 100	> 100	> 100	> 100	> 100 µM	> 100	> 100	> 100	> 100									
O=C(C#Cc1cn(C2CC(O)C(CO)O2)c(=O)[nH]c1=O)c1ccccc1 (stereo not given)		> 100	> 100	> 100	> 100	> 100 µM		36.7	> 100	> 100									
